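The compound was tested at five concentrations on cells cultured in 96-well plates, with a 48-hour exposure period. TGI: concentration producing complete growth inhibition.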
What was measured:
Experiment in all cases: NCI-60 cell line screen, 48 h
BT-549 breast = test system: BT-549 breast
DU-145 prostate = test system: DU-145 prostate
IGROV1 ovarian = test system: IGROV1 ovarian
MOLT-4 leukemia = test system: MOLT-4 leukemia
NCI-H226 lung = test system: NCI-H226 lung
NCI-H522 lung = test system: NCI-H522 lung
OVCAR-8 ovarian = test system: OVCAR-8 ovarian
RPMI-8226 leukemia = test system: RPMI-8226 leukemia
RXF 393 renal = test system: RXF 393 renal
SK-MEL-28 melanoma = test system: SK-MEL-28 melanoma
SK-MEL-5 melanoma = test system: SK-MEL-5 melanoma
SK-OV-3 ovarian = test system: SK-OV-3 ovarian
SN12C renal = test system: SN12C renal
SNB-19 CNS = test system: SNB-19 CNS
T-47D breast = test system: T-47D breast
UACC-257 melanoma = test system: UACC-257 melanoma
HCC-2998 colon = test system: HCC-2998 colon
MCF7 breast = test system: MCF7 breast
SNB-75 CNS = test system: SNB-75 CNS

Row | SMILES | TGI (BT-549 breast) [µM] | TGI (DU-145 prostate) [µM] | TGI (IGROV1 ovarian) [µM] | TGI (MOLT-4 leukemia) [µM] | TGI (NCI-H226 lung) [µM] | TGI (NCI-H522 lung) [µM] | TGI (OVCAR-8 ovarian) [µM] | TGI (RPMI-8226 leukemia) [µM] | TGI (RXF 393 renal) [µM] | TGI (SK-MEL-28 melanoma) [µM] | TGI (SK-MEL-5 melanoma) [µM] | TGI (SK-OV-3 ovarian) [µM] | TGI (SN12C renal) [µM] | TGI (SNB-19 CNS) [µM] | TGI (T-47D breast) [µM] | TGI (UACC-257 melanoma) [µM] | TGI (HCC-2998 colon) [µM] | TGI (MCF7 breast) [µM] | TGI (SNB-75 CNS) [µM]
1 | O=C(NC1CCN(Cc2ccccc2)CC1)c1ccccc1I | > 100 | > 100 | > 100 | 55.1 | 72.8 | 27.6 | > 100 | > 100 | > 100 | 36.5 | 31 | 43.6 | > 100 | > 100 | 66.1 | 38 | – | – | –
2 | CO/N=C/c1c(-c2ccc(Cl)cc2)c(/C=N/OC)n2c1sc1ccccc12 | > 100 | > 100 | > 100 | > 100 | – | > 100 | > 100 | – | > 100 | > 100 | > 100 | > 100 | > 100 | > 100 | > 100 | > 100 | > 100 | > 100 | > 100
3 | N=c1c2ccccc2nc2oc3ccc(Cl)cc3n12 | > 100 | – | 69.8 | > 100 | 34.6 | 53.1 | 69.1 | 23.5 | 26.1 | > 100 | > 100 | 46.2 | 61.5 | > 100 | – | > 100 | > 100 | – | 23.6
4 | O=C1C=Cc2c(I)sc(I)c21 | 41.5 | > 100 | 31 | 42.3 | > 100 | 6.97 | 42.3 | – | 40.3 | 44.6 | > 100 | > 100 | 45.7 | – | 41.4 | 53.5 | 35.3 | 52.1 | 87.4
5 | COc1cc(C2SC(N)=Nc3c2c(C)nn3C(=O)Cc2ccccc2)ccc1O (configuration not stated) | > 100 | > 100 | > 100 | > 100 | > 100 | > 100 | > 100 | > 100 | – | > 100 | > 100 | > 100 | > 100 | > 100 | > 100 | > 100 | > 100 | > 100 | 75.2
6 | CO[C@H]1C[C@H](O[C@H]2CC[C@]3(C=O)[C@H]4CC[C@]5(C)[C@@H](C6=CC(=O)OC6)CC[C@]5(O)[C@@H]4CC[C@]3(O)C2)O[C@H](C)[C@H]1O[C@@H]1O[C@H](CO[C@@H]2O[C@H](CO)[C@@H](O)[C@H](O)[C@H]2O)[C@@H](O)[C@H](O)[C@H]1O | 0.164 | 0.0413 | 0.825 | 1.07 | 0.32 | 0.0638 | 0.167 | – | 0.0802 | 1.15 | 0.124 | 0.21 | 0.11 | 0.83 | 0.385 | 1.27 | – | 0.677 | 0.437
7 | CC1OC2OC3C(OCC(O)C3O)OC(=O)[C@]34CCC(C)(C)CC3C3=CCC5[C@@]6(C)C[C@H](O)[C@H](OC7OC(CO)C(O)C(O)C7OC7OC(COC(=O)CC(C)(O)CC(=O)OC1C(O)C2O)C(O)C(O)C7O)[C@@](C)(CO)C6CC[C@@]5(C)[C@]3(C)CC4 (some centres not stated) | 2.82 | 3.02 | 2.54 | – | 5.19 | 3.08 | 3.1 | – | – | 2.79 | 2.34 | 2.79 | 4.37 | 3.18 | 7.23 | 2.64 | 2.63 | 15.2 | 2.89
8 | O=C1c2ccc3ccccc3c2CCC1N1CCCCC1 (configuration not stated) | 74.7 | 30.3 | 29.5 | – | 31.4 | 35.7 | 37.3 | – | 46.5 | 33.1 | 30.7 | 54.4 | 29 | 40.8 | 54.3 | 35 | – | > 100 | 34.3
9 | O=C(O)C1CCCN1Cc1ccc2c(c1)OCO2 (configuration not stated) | > 100 | > 100 | > 100 | > 100 | > 100 | > 100 | > 100 | > 100 | > 100 | > 100 | > 100 | > 100 | > 100 | > 100 | > 100 | > 100 | – | > 100 | > 100
10 | Clc1ccc(N=Cc2cc3cc(Br)ccc3nc2Cl)cc1 | > 50 | > 50 | > 50 | > 50 | > 50 | > 50 | > 50 | 38.4 | > 50 | > 50 | 45.2 | – | > 50 | – | > 50 | > 50 | > 50 | – | > 50
11 | O=C1CCC2(c3ccc(F)cc3)Nc3ncncc3N12 (configuration not stated) | > 10 | > 10 | > 10 | > 10 | > 10 | > 10 | > 10 | – | – | – | – | – | > 10 | > 10 | – | > 10 | > 10 | > 10 | > 10
12 | N#C/C(N)=C(\C#N)N=CNc1ccccc1N | > 100 | > 100 | > 100 | > 100 | > 100 | > 100 | > 100 | > 100 | – | > 100 | > 100 | > 100 | > 100 | > 100 | > 100 | > 100 | > 100 | > 100 | > 100
13 | CCC1CCN=C(Cn2cc(C)c(=O)[nH]c2=O)N1 (configuration not stated) | > 100 | > 100 | > 100 | – | > 100 | > 100 | > 100 | – | > 100 | > 100 | > 100 | > 100 | > 100 | > 100 | > 100 | > 100 | > 100 | > 100 | > 100
14 | COC(=O)c1cc(/C=C2\Cc3cc4c(cc3C2=O)CCC4)cc2c1CCC2 | > 100 | > 100 | > 100 | > 100 | > 100 | > 100 | > 100 | > 100 | – | > 100 | – | > 100 | > 100 | > 100 | > 100 | > 100 | > 100 | > 100 | > 100

From PubChem BioAssay (NCI)
